What was measured:
[1] = tested on: intraocular LPS-induced Chemokine/Cytokine profiles; test: Chemokine/Cytokine Multiplex Assay on ocular fluids in EIU; assay type: in vivo, Lewis rats
Protocol: Aqueous humor and vitreous were collected and pooled from each enucleated eye. Ocular fluids were immediately centrifuged and the cell-free fractions were collected and frozen at -20°C before analysis by Multiplex assay. Blood samples were first clotted at room temperature for 2 hours and then at 4°C overnight. Serum was collected, centrifuged and the clear supernatant was collected and frozen at -20°C before Multiplex analysis.
In a first set of experiment, 70 rats were randomized into 14 experimental groups with 5 rats per group. Uveitis was induced in each group and rats were killed 6 hours (4 groups), 24 hours (6 groups) and 48 hours (4 groups) after LPS challenge. For each time point tested (i.e. 6h, 24h and 48h), rats treated by intravenous or intravitreous injections of vehicle (NaCl 0.9%) or the JNK-inhibitor (poly-)peptide of SEQ ID NO: 11 were compared to untreated control uveitic rats. Two additional groups, treated by intravenous injection of vehicle and intravitreal injection of dexamethasone were used at 24 hours. Clinical ocular inflammation was recorded only at 24 hours (see Scoring of Endotoxin-Induced Uveitis (EIU) section). At each time point, intraocular fluids from each eye (n=10 per group) and serum from each animal (n=5 per group) were used for Chemokine/Cytokine Multiplex Assay.
Intraocular fluids (diluted to obtain a final volume of 25 µL) and sera (25 µL of 1:5 dilution) were subjected to multiplex bead analysis. This method uses microspheres as the solid support for immunoassays 12 and allows the titration of a greater number of cytokines with increased sensitivity than occurs with ELISA.13 For each sample, seventeen analytes were quantified simultaneously using the rat Cytokine/Chemokine-17plex kit (Milliplex Map Kit, Millipore, Saint-Quentin-en-Yvelines, France) according to the manufacturer's instructions: Chemokines MCP-1/CCL2, MIP-1α/CCL3, RANTES/CCL5, IP-10/CXCL10 (IFN-inducible protein-10) and GRO/KC; proinflammatory mediators IL-1, IL-18 and TNF-; Th1/Th2/Th17 cytokines IL-2 and IFN- / IL-4, IL-5, IL-6, IL-10 and IL-13 / IL-17. The assay was performed in a 96-well filter plate and standard curves for each cytokine were generated with a Rat Cytokine Standard provided in the kit. All incubation steps were performed under medium orbital agitation and in the dark to protect the beads from light. Data acquisition and analysis were performed with the manager software version 4.1 (Bioplex; Bio-Rad) with four or five logistic parameters for standard curves. Detection thresholds for all the analytes were estimated around 1 to 10 pg/mL.

ED1 positive cells = test: Quantification of infiltrating ED1 positive cells on histological sections in EIU; assay type: in vivo, Lewis rats; conditions: 24 hours after LPS challenge, mean ± SEM
Protocol: For immunohistochemistry, eyeballs were collected and fixed for 1h at room temperature in phosphate buffered saline (PBS) containing 4% paraformaldehyde before being rinsed overnight in PBS. The next day, samples were embedded and frozen in optimal cutting-temperature (OCT) compound (Tissue-Tek®, Sakura Finetek, Zoeterwoude, Netherland) and stored at -80°C. Frozen antero-posterior sections of eyes (10 µm thick) were performed at the optic nerve level using a cryostat (Leica CM 3050S, Rueil-Malmaison, France) and mounted on super-frost slides for immunohistochemical analysis.
A second set of experiment was designed to evaluate the anti-inflammatory effect of the JNK-inhibitor (poly-)peptide of SEQ ID NO: 11 at the cellular and tissue level as well as the biodistribution of this molecule 24 hours after administration. Rats were randomized into 11 experimental groups. 6 groups of rats with uveitis: untreated uveitic rats, rats injected intravenously with NaCl or the JNK-inhibitor (poly-)peptide of SEQ ID NO: 11 and rats injected intravitreously with the vehicle, the JNK-inhibitor (poly-)peptide of SEQ ID NO: 11 or dexamethasone. The 5 additional groups without uveitis were: untreated healthy rats, rats treated by NaCl IV or the JNK-inhibitor (poly-)peptide of SEQ ID NO: 11 IV and rats injected IVT with NaCl or the JNK-inhibitor (poly-)peptide of SEQ ID NO: 11. Three eyes from separate rats were collected per group and used for immunohistochemistry.
To characterize the cellular infiltrate, sections were double-stained with ED1 and iNOS. […] After staining nuclei with DAPI (Sigma-Aldrich, Saint-Quentin Fallavier, France), sections were mounted in PBS/Glycerol (1/1) and observed by fluorescence photomicroscopy (FXA, Microphot, Nikon, Melville, USA). […] ED1 positive cells and polymorphonuclear cells, identified by the shape of their nuclei stained with DAPI, were quantified on histological sections. […] Results were expressed as mean ± standard error of the mean (SEM).

[2] = ocular fluids, IV at the time of LPS challenge, at 6 and 24 hours
[3] = ocular fluids, IV, at different time points
[4] = ocular fluids, IVT, at 24 hours
[5] = treated versus untreated eyes, any of the tested time points

Question: Which MCP-1 [1, 2] does the source give for `CC(C)C[C@@H](NC(=O)[C@@H](Cc1ccccc1)NC(=O)[C@H]1CCCN1C(=O)[C@@H](CCC(N)=O)NC(=O)[C@H](NC(=O)[C@H]1CCCN1C(=O)[C@@H](CCCNC(=N)N)NC(=O)[C@@H](CO)NC(=O)[C@@H](CCC(N)=O)NC(=O)[C@H](N)CC(=O)O)C(C)C)C(=O)N[C@H](CC(N)=O)C(=O)N[C@H](CC(C)C)C(=O)N[C@@H](C(=O)N[C@@H](C(=O)N1CCC[C@@H]1C(=O)N[C@H](CCCNC(=N)N)C(=O)N[C@H](CCCCN)C(=O)N1CCC[C@@H]1C(=O)N[C@H](CCCNC(=N)N)C(=O)N1CCC[C@@H]1C(=O)N1CCC[C@@H]1C(=O)N[C@H](CCCNC(=N)N)C(=O)N[C@H](CCCNC(=N)N)C(=O)N[C@H](CCCNC(=N)N)C(=O)N[C@H](CCC(N)=O)C(=O)N[C@H](CCCNC(=N)N)C(=O)N[C@H](CCCNC(=N)N)C(=O)N[C@H](CCCCN)C(=O)N[C@H](CCCCN)C(=O)N[C@H](CCCNC(=N)N)C(=O)NCC(=O)O)[C@H](C)O)[C@H](C)O` [SEQ ID NO: 11] here?
Answer: significant reduction

Question: And the MIP-1α [1, 2]?
Answer: significant reduction

Question: What about the RANTES [1, 2] of the same compound?
Answer: significant reduction

Question: What about the GRO/KC ([1]; ocular fluids, IV, at 6 hours) of the same compound?
Answer: significantly reduced

Question: And the IL-10 ([1]; ocular fluids, IV, at 6 hours, not significantly)?
Answer: tended to increase

Question: What about the IL-6 [1, 3] of the same compound?
Answer: significantly reduced

Question: And the INF-γ [1, 3]?
Answer: significantly reduced

Question: What about the TNF-α [1, 3] of the same compound?
Answer: significantly reduced

Question: And the IL-2 ([1]; ocular fluids, IVT, at 6 hours)?
Answer: trend to a decrease

Question: What about the IL-6 ([1]; ocular fluids, IVT, at 6 hours) of the same compound?
Answer: trend to a decrease

Question: And the MCP-1 ([1]; ocular fluids, IVT, at 6 hours)?
Answer: trend to a decrease

Question: And the TNF-α ([1]; ocular fluids, IVT, at 6 hours)?
Answer: trend to a decrease

Question: What about the IL-2 [1, 4] of the same compound?
Answer: marked decrease

Question: And the IL-13 [1, 4]?
Answer: increase

Question: What about the chemokine/ cytokine profiles ([1]; ocular fluids, injected into the vitreous at the time of LPS challenge, versus vehicle) of the same compound?
Answer: not strikingly different

Question: What about the IL-1β [1, 5] of the same compound?
Answer: did not differ

Question: What about the IL-4 [1, 5] of the same compound?
Answer: did not differ

Question: And the IL-18 [1, 5]?
Answer: did not differ

Question: What about the “number of ED1 positive cells” value (ED1 positive cells; IV injection (20 µg/kg)) of the same compound?
Answer: 137 ± 7

Question: And the “number of ED1 positive infiltrating cells” value (ED1 positive cells; IVT injection (SEQ ID NO: 11: 0.2 µg/injection))?
Answer: 93 ± 8
